“And” between values parts separate entries of the source, which are not always exact repeats. Equal values may be shown once. Marks after values point to notes of the source that are not given here.
Legend:
[1] = tested on: FeCl3 induced carotid artery thrombosis; experiment: FeCl3 induced carotid artery thrombosis, time till occlusion; format: in vivo, Wistar rats; details: for Time till occlusion, %: control = 100
Excerpt: We chose an experimental thrombosis model based on rat arterial thrombosis induced by FeCl3 (Kurz K et al, Thromb Res 1990, 60:269-280. Wang X, Xu L, Thromb Res 2005,115:95-100). Tissue damage initiated by iron-mediated chemical oxidation predisposes the injured area to platelet adherence and aggregation followed by coagulation activation and fibrin deposition. Male Wistar rats with mass 350-420 g were used in experiments. Animals were kept in groups of 7-8 in adequate cages in climatized room at 22±1° C., relative humidity 60±5% and 12/12-hour light/darkness cycle with free access to feed and water. All experiments were carried out in accordance with the European Community Council's Directive of 24 Nov. 1986 (86/609/EEC) relative to experimental animal care. All efforts were made to minimize animal suffering and to reduce the number of animals used. Rats were randomly divided into various experimental groups, each consisting of not less than seven animals. The vehicle or test compound MD (25 mg/kg), NA (25 mg/kg), MASA (10 mg/kg), ASA (5 mg/kg) and combination MD+NA (25+25 mg/kg), MASA+NA (10+25 mg/kg) and ASA+NA (5+25 mg/kg) was administered by oral route 2 h before the initiation of thrombosis. Parallel experiments were conducted to compare the effects of a single dose of test substance (given 2 h before the initiation of thrombosis) and repeated doses (once daily for 3 days). […] Rats were anaesthetized with pentobarbital sodium (50 mg/kg, i.p. and 10 mg/kg/h) and were placed on a heat controlled operating table throughout the experiment to maintain a body temperature of 37° C. One of the carotid arteries was exposed by cervical incision, separated from the adherent tissue, vagus nerve, and a flow probe (electromagnetic blood flow meter MFV 1200, Nicon Kohden, Japan) was placed on the exposed segment of common carotid artery to record the blood flow. After a stabilization period of 15 min, thrombosis was induced by topically applying (in contact with the adventitial surface of vessel) two pieces (2×1 mm) of Whatman filter paper, soaked in 15% solution of FeCl3. Thrombosis time of carotid artery was recorded as time taken for the complete cessation of the blood flow and has been reported as time till occlusion (TTO).

[2] = tested on: platelet aggregation; experiment: Platelet aggregation in vitro, whole blood impedance aggregometry (Multiplate); format: cell-based, healthy donor
Method: Platelet aggregation was studied using whole blood impedance aggregometry on Multiplate (Multiple Platelet Function Analyzer, Dynabyte Medical, Germany) (Toth O et al, Thromb Haemost 2006; 96:781-788. […] Blood samples for in vitro experiment were collected from healthy donor B. […] In the ex vivo experiment blood was collected into plastic tubes covered with hirudin (Dynabyte Medical, Germany) from narcotized rats that were treated for 3 previous days with test substances p.o. The measurements were performed according to modified Dynabyte Medical protocol. […] After 5 min incubation and stirring at 37° C., measurements were initiated by adding of the appropriate agonist solution (sourced from Dynabyte Medical, Germany): 1) adenosine diphosphate (ADP)-ADP-Test. ADP stimulates platelet activation by the ADP receptors (P2Y 12 and other). […] 3) ADP HS test (prostaglandin E1 in combination with ADP). […] Aggregation curves were recorded for 6 min. and analyzed using Dynabyte Medical software. We calculated the following parameters of platelet aggregation: […] It is affected by the total height of the aggregation curve as well as by its slope and is best suited to express the overall platelet activity.

[3] = tested on: carrageneen paw oedema; experiment: Acute inflammatory oedema model (carrageneen test); format: in vivo, rats; details: 4 h
Method: Experiments were conducted using carrageneen test (Winter C et al, Proc Soc Exptl Biol and Med 1962; III(3):544-547. Wei Jia et al, Journal of Ethnopharmacology 2003(89):139-141; Sutharson Lingadurai et al, African Journal of traditional, complementary and alternative medicines, 2007, 4(4):411-416) on 42 rats with body mass of 226-274 g. Single injection of carrageneen (Sigma) solution (1%) in saline (0.1 ml) was introduced in rat hind leg paw. Test substances were introduced p.o. (through catheter into rat stomach) 30 min. after the injection of carrageneen. The volume of paw was measured by oncometer at baseline and 4 hours after the injection of carrageneen.
The percentage of prevention (inhibition of oedema) was calculated according to formula: P(%)=(1−Vo/Vc)×100, where P—Prevention in % (inhibition of oedema) Vo—difference between the paw volume at baseline and at experimental conditions; Vc—analogical difference in control group.

[4] = tested on: WBC, CRP, CIC in adjuvant arthritis; experiment: Adjuvant arthritis: WBC, CRP and CIC in blood; format: in vivo, Wistar rats
Method: Our experiments were scheduled to test the influence of MASA on the progress of adjuvant arthritis in comparison with MD and ASA. Experiments were conducted on Wistar rats with starting body mass of 153-185 g. Rats were kept in climatized rooms at 22±1° C., relative humidity 60±5% and 12/12-hour light/darkness cycle. Each standard cage housed 7 rats with unlimited access to drinking water and granulated standard feed. All experiments were carried out in accordance with the European Community Council's Directive of 24 Nov. 1986 (86/609/EEC) relative to experimental animal care. All efforts were made to minimize animal suffering and to reduce the number of animals used.
A modified standard procedure for inducting and evaluating the progress of chronic adjuvant arthritis was used (Bellavite P, Ortolani R, Conforti A, Immunology and Homeopathy. 3. Experimental Studies on Animal Models, Advance Access Publication 2.05, 2006, 171-186). Rats were injected into the hind foot pad 0.1 ml and intraperitonealy with 0.05 ml of complete Freund's adjuvant solution.
Hematological indices were determined by standard methods on hematological analyzer ? PENTRA 120 ? , CRP was determined on ? INTEGRA 400+ ? . Levels of CIC in blood serum were determined spectrometrically, using […].

[5] = 25 mg/kg p.o., single dose 2 h before
[6] = 100 mg/kg p.o. 30 min after carrageneen
[7] = 75 mg/kg p.o. 30 min after carrageneen
[8] = 150 mg/kg p.o. 30 min after carrageneen
[9] = 300 mg/kg p.o. 30 min after carrageneen
[10] = 10 mg/kg/d p.o., repeated, 3 days
[11] = 5 mg/kg/d p.o., repeated, 3 days

SMILES: O=C(O)c1cccnc1 [NA, nicotinic acid]
- Time till occlusion [1, 5]: 30.3 ± 3.12 min
- Time till occlusion, % ([1]; 25 mg/kg p.o., single dose): 124%
- AUC ([2]; AA induced, 10^−4): 1010 ± 41.7 AU*min
- Amax ([2]; AA induced, 10^−4): 161.1 ± 9.4 AU
- AUC ([2]; ADP induced, 10^−4): 859 ± 62.5 AU*min
- Amax ([2]; ADP induced, 10^−4): 148.0 ± 5.2^1 AU
- AUC ([2]; PGE1 + ADP induced, 10^−4): 862 ± 51.9 AU*min
- Amax ([2]; PGE1 + ADP induced, 10^−4): 146.7 ± 8.6 AU

SMILES: C[N+](C)(C)NCCC(=O)[O-].O.O [MD, 3-(Trimethylammonioamino)propanoate dihydrate]
- Index, % (inhibition of oedema) [3, 6]: 43%
- Volume of paw after injection of carrageneen [3, 6]: 2.13 ± 0.12 mL
- CIC units, Day 14 ([4]; 100 mg/kg daily p.o.): 11.8 ± 2.22 units
- CIC units, Day 28 ([4]; 100 mg/kg daily p.o.): 8.6 ± 0.93 units
- CRP, Day 14 ([4]; 100 mg/kg daily p.o.): 0.26 ± 0.02 mg/L
- CRP, Day 28 ([4]; 100 mg/kg daily p.o.): 0.17 ± 0.02 mg/L
- Leucocytes (WBC), Day 14 ([4]; 100 mg/kg daily p.o.): 14.42 ± 1.41^# 10^3/mm^3
- Leucocytes (WBC), Day 28 ([4]; 100 mg/kg daily p.o.): 15.55 ± 1.26^# 10^3/mm^3
- Time till occlusion [1, 5]: 29.8 ± 2.29 min
- Time till occlusion, % ([1]; 25 mg/kg p.o., single dose): 122%
- AUC ([2]; AA induced, 10^−4): 1050 ± 37.6^& AU*min
- Amax ([2]; AA induced, 10^−4): 179.5 ± 7.3^& AU
- AUC ([2]; ADP induced, 10^−4): 869 ± 36.3 AU*min
- Amax ([2]; ADP induced, 10^−4): 153.2 ± 6.1 AU
- AUC ([2]; PGE1 + ADP induced, 10^−4): 587 ± 37.4^2&& AU*min
- Amax ([2]; PGE1 + ADP induced, 10^−4): 101.4 ± 2.2^2&& AU

SMILES: CC(=O)Oc1ccccc1C(=O)[O-].C[N+](C)(C)NCCC(=O)O [MASA, 3-(trimethylammonioamino)propanoate Acetylsalicylic Acid Addition Salt]
- Index, % (inhibition of oedema) [3, 7]: 18%
- Volume of paw after injection of carrageneen [3, 7]: 2.51 ± 0.11 mL
- Index, % (inhibition of oedema) [3, 8]: 93%
- Volume of paw after injection of carrageneen [3, 8]: 1.54 ± 0.15***^$& ml
- Index, % (inhibition of oedema) [3, 9]: 91%
- Volume of paw after injection of carrageneen [3, 9]: 1.79 ± 0.15 mL
- CIC units, Day 14 ([4]; 25 mg/kg daily p.o.): 12.6 ± 0.68 units
- CIC units, Day 28 ([4]; 25 mg/kg daily p.o.): 11.8 ± 1.53 units
- CRP, Day 14 ([4]; 25 mg/kg daily p.o.): 0.29 ± 0.02 mg/L
- CRP, Day 28 ([4]; 25 mg/kg daily p.o.): 0.15 ± 0.02^##& mg/l
- Leucocytes (WBC), Day 14 ([4]; 25 mg/kg daily p.o.): 14.72 ± 1.63^# 10^3/mm^3
- Leucocytes (WBC), Day 28 ([4]; 25 mg/kg daily p.o.): 16.77 ± 1.78 10^3/mm^3
- CIC units, Day 14 ([4]; 100 mg/kg daily p.o.): 20.8 ± 2.99 units
- CIC units, Day 28 ([4]; 100 mg/kg daily p.o.): 5.8 ± 0.74^##&@@$ units
- CRP, Day 14 ([4]; 100 mg/kg daily p.o.): 0.29 ± 0.02 mg/L
- CRP, Day 28 ([4]; 100 mg/kg daily p.o.): 0.16 ± 0.01^##& mg/l
- Leucocytes (WBC), Day 14 ([4]; 100 mg/kg daily p.o.): 14.13 ± 0.53^## 10^3/mm^3
- Leucocytes (WBC), Day 28 ([4]; 100 mg/kg daily p.o.): 15.52 ± 0.57^## 10^3/mm^3
- CIC units, Day 14 ([4]; 200 mg/kg daily p.o.): 21.6 ± 3.26 units
- CIC units, Day 28 ([4]; 200 mg/kg daily p.o.): 6.2 ± 1.02^##@ units
- CRP, Day 14 ([4]; 200 mg/kg daily p.o.): 0.25 ± 0.01*^#@ mg/l
- CRP, Day 28 ([4]; 200 mg/kg daily p.o.): 0.19 ± 0.01 mg/L
- Leucocytes (WBC), Day 14 ([4]; 200 mg/kg daily p.o.): 15.42 ± 1.40^# 10^3/mm^3
- Leucocytes (WBC), Day 28 ([4]; 200 mg/kg daily p.o.): 14.35 ± 0.84^## 10^3/mm^3
- Time till occlusion ([1]; 10 mg/kg p.o., single dose 2 h before): 41.7 ± 3.95^2 min and 41.7 ± 3.95^2b min
- Time till occlusion, % ([1]; 10 mg/kg p.o., single dose): 171%
- Time till occlusion [1, 10]: 48.4 ± 4.35^2 min
- Time till occlusion, % [1, 10]: 191%
- AUC ([2]; AA induced, 10^−4): 298 ± 25.3^3#&&$ AU*min and 298 ± 25.3^3aa& AU*min
- Amax ([2]; AA induced, 10^−4): 66.1 ± 6.8^3#&&$ AU and 66.1 ± 6.8^3aa& AU
- AUC ([2]; AA induced, 10^−5): 832 ± 54.1^1 AU*min
- Amax ([2]; AA induced, 10^−5): 148.4 ± 5.7^1 AU
- AUC ([2]; ADP induced, 10^−4): 798 ± 38.9^1 AU*min
- Amax ([2]; ADP induced, 10^−4): 140.5 ± 7.2^1 AU
- AUC ([2]; ADP induced, 10^−5): 828 ± 63.5 AU*min
- Amax ([2]; ADP induced, 10^−5): 153.5 ± 8.8 AU
- AUC ([2]; PGE1 + ADP induced, 10^−4): 533 ± 20.3^3$&&& AU*min
- Amax ([2]; PGE1 + ADP induced, 10^−4): 87.7 ± 4.6^3$&&& AU
- AUC ([2]; PGE1 + ADP induced, 10^−5): 595 ± 45.3^1 AU*min
- Amax ([2]; PGE1 + ADP induced, 10^−5): 99.3 ± 4.8^2 AU

SMILES: CC(=O)Oc1ccccc1C(=O)O [ASA, acetylsalicylic acid]
- Index, % (inhibition of oedema) [3, 6]: 66%
- Volume of paw after injection of carrageneen [3, 6]: 1.97 ± 0.10 mL
- CIC units, Day 14 ([4]; 10 mg/kg daily p.o.): 10.8 ± 0.74 units
- CIC units, Day 28 ([4]; 10 mg/kg daily p.o.): 8.2 ± 0.53 units
- CRP, Day 14 ([4]; 10 mg/kg daily p.o.): 0.26 ± 0.01 mg/L
- CRP, Day 28 ([4]; 10 mg/kg daily p.o.): 0.19 ± 0.01 mg/L
- CIC units, Day 14 ([4]; 100 mg/kg daily p.o.): 15.0 ± 1.23 units
- CIC units, Day 28 ([4]; 100 mg/kg daily p.o.): 14.4 ± 1.66 units
- CRP, Day 14 ([4]; 100 mg/kg daily p.o.): 0.29 ± 0.01 mg/L
- CRP, Day 28 ([4]; 100 mg/kg daily p.o.): 0.18 ± 0.02 mg/L
- Time till occlusion ([1]; 5 mg/kg p.o., single dose 2 h before): 35.2 ± 3.02^1 min
- Time till occlusion, % ([1]; 5 mg/kg p.o., single dose): 144%
- Time till occlusion [1, 11]: 40.9 ± 3.25^1 min
- Time till occlusion, % [1, 11]: 162%
- AUC ([2]; AA induced, 10^−4): 450 ± 24.8^2#@ AU*min and 450 ± 24.8^3a@ AU*min
- Amax ([2]; AA induced, 10^−4): 103.1 ± 5.9^2#@ AU and 103.1 ± 5.9^2a@ AU
- AUC ([2]; ADP induced, 10^−4): 883 ± 50.3 AU*min
- Amax ([2]; ADP induced, 10^−4): 151.7 ± 9.3 AU
- AUC ([2]; PGE1 + ADP induced, 10^−4): 961 ± 35.0 AU*min
- Amax ([2]; PGE1 + ADP induced, 10^−4): 162.5 ± 8.7 AU

Source: US8889902B2, “Acetylsalicylic acid salts” (priority 2009, dated 2014)
